The source of these data is PMC6199309, “A therapeutic approach to pantothenate kinase associated neurodegeneration” (Nature Communications, 2018).

Each structure is given as a SMILES string.

Test [1] has as its target T1, PRKD2 (Homo sapiens, UniProt Q9BZL6).
T1 construct: purchased DiscoverX KINOMEscan
Put plainly: KINOMEscan. The format is binding. Conditions: read-out: %Ctrl @ 10000nM.

Test [2] concerns C3A cells. In words: Intracellular CoA and metabolite levels in C3A cells. Format: cell-based, human. As to conditions: 24 h. As for the experimental part: HEK293T cells (ATCC, #CRL-3216) were maintained in Dulbecco’s modified Eagle’s medium (DMEM, Biowhittaker/Lonza) supplemented with 10% FCS. Human C3A [HepG2/C3A, derivative of HepG2] cells (ATCC #CRL-10741) were purchased from ATCC® and maintained in Eagle’s minimum Essential medium (ATCC) supplemented with 2 mM glutamine, 10% fetal bovine serum (FCS, Altanta Biologicals), 50 U/ml penicillin and […] streptomycin. Both cell lines were confirmed to be mycoplasma-free. […]. […] After 24 h of treatment (total 48 h after transfection) the cells were washed with PBS and harvested and subjected to either total CoA or acetyl-CoA determinations.
Prior to labeling, cells were seeded at a density of 2–3 × 10^6 in 60 mm-dishes in reconstituted DMEM without added pantothenate and allowed to adhere overnight. The labeling was initiated by replacing the medium with 2 ml of labeling medium containing 0.1% dimethylsulfoxide (DMSO; control) or 10 μM of the compound in 0.1% DMSO. Cells were incubated for 24 h, the labeling medium was removed, and cells were washed with phosphate buffered saline and lysed by sonication in 20 mM Tris-HCl, pH 7.5, 2 mM DTT, 5 mM EDTA and 50 mM NaF. The lysates were fractionated by thin-layer chromatography after removal of the cell debris by centrifugation. The samples were spotted on Silica Gel H plates and resolved with 95% ethanol:28% ammonium hydroxide (4/1, v/v). The distribution of radioactivity on the plate was quantified using a Bioscan Imager (Bioscan, Inc.) together with quantification of the total cellular radioactivity determined by a Liquid Scintillation Analyzer (PerkinElmer Tri-Carb 2910 TR). Triplicate culture dishes were labeled for each group plus a dish for each group for determination of cell counts and viability using a Nucleocounter (New Brunswick Scientific) according to the manufacturer’s directions. The experiments were repeated twice in duplicate and the data represented is an overall average ± SEM.
Cultured cells or frozen tissues were resuspended in 2 ml cold water to which 500 μl of 0.25 M KOH was added, derivatized with monobromobimane (mBBr, Life technologies) and quantified by HPLC[23]. For acetyl-CoA determinations, C3A cells were resuspended in 1 ml water, added to 2 ml of methanol and 1 ml chloroform, and incubated on ice for 15 min. Chloroform 1.5 ml, 1.2 ml water and 30 pmol of [^13C2]acetyl-CoA (Sigma) was added, and centrifuged at 2000×g for 10 min. The top layer was loaded on a 2-(2-pyridyl) ethyl solid phase extraction column which was equilibrated with 1 ml 50% methanol/2% acetic acid. The column was washed twice with 1 ml 50% methanol/2% acetic acid and 1 ml water. CoA and thioesters were eluted twice with 1 ml 95% ethanol containing 50 mM ammonium hydroxide. Samples were resuspended in 90% methanol containing 15 mM ammonium hydroxide.
The mBBr derivatized sample was fractionated by reverse-phase HPLC using a Gemini C18 3 μm column (150 × 4.60 mm) from Phenomenex. The chromatography system was a Waters e2695 separation module with a UV/Vis and fluorescence detector and controlled by Empower 3 software. Solvent A was 50 mM potassium phosphate pH 4.6, and solvent B was 100% acetonitrile. Twenty microliters of sample was injected onto the column, and the flow rate was 0.5 ml/min. The HPLC program was the following: starting solvent mixture of 90% A/10% B, 0–2 min isocratic with 10% B, 2–6 min linear gradient from 10% B to 15% B, 6–18 min concave gradient from 15% B to 40% B, 18–23 min isocratic with 40% B, 23–25 min linear gradient from 40 to 10%, and 25–30 min isocratic with 10% B. The UV/vis detector was set at 393 nm, and the fluorescence detector was set with excitation at 393 nm and emission at 470 nm. […]

For test [3], the target named is T2, EGFR(T790M) (Homo sapiens, UniProt P00533, T790M).
T2 construct: purchased DiscoverX KINOMEscan
Put plainly: KINOMEscan. The format is binding. As to conditions: read-out: %Ctrl @ 10000nM.

Test [4] addresses T3, PCTK2 (Homo sapiens, UniProt Q00537).
T3 construct: purchased DiscoverX KINOMEscan
In words: KINOMEscan. Format: binding. As to conditions: read-out: %Ctrl @ 10000nM.

Test [5] has as its target T4, WNK3 (Homo sapiens, UniProt Q9BYP7).
T4 construct: DNA label for qPCR (T7 phage fusion or DNA tag); purchased DiscoverX scanMAX; host or cells: E. coli BL21-derived (T7 phage) or HEK-293
In words: KINOMEscan. The format is binding. Conditions: read-out: %Ctrl @ 10000nM.

Test [6] has as its target T5, DCAMKL1 (Homo sapiens, UniProt O15075).
T5 construct: purchased DiscoverX KINOMEscan
Put plainly: KINOMEscan. Format: binding. Conditions: read-out: %Ctrl @ 10000nM.

For test [7], the target named is T6, AURKC (Homo sapiens, UniProt Q9UQB9).
T6 construct: purchased DiscoverX KINOMEscan
In words: KINOMEscan. The format is binding. As to conditions: read-out: %Ctrl @ 10000nM.

In test [8] the target is T7, GRK3 (Homo sapiens, UniProt P35626).
T7 construct: DNA tag for qPCR (T7 phage fusion or DNA label); purchased DiscoverX KdELECT; host or cells: E. coli BL21-derived (T7 phage) or HEK-293
T7 sequence (P35626 whole entry, the tested form may be a part): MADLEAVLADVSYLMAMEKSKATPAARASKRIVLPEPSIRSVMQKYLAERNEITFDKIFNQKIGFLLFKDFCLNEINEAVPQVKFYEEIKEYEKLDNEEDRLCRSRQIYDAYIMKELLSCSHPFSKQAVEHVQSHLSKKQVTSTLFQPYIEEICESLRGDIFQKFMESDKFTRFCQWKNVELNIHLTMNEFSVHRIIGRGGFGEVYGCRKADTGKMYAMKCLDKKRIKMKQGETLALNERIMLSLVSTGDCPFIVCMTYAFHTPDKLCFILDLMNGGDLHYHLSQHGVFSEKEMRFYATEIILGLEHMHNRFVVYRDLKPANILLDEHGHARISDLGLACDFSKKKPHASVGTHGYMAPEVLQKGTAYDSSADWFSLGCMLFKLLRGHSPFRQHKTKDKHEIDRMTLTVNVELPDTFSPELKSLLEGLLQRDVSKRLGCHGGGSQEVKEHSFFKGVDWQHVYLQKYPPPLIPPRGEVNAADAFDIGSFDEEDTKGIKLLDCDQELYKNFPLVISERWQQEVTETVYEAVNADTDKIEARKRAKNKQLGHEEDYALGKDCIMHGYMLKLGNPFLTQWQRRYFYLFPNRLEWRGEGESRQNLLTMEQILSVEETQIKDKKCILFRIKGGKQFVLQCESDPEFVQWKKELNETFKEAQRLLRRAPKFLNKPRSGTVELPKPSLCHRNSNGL
In words: KINOMEscan KdELECT. The format is binding.

Test [9] concerns the target T8, p38-gamma (Homo sapiens, UniProt P53778).
T8 construct: purchased DiscoverX KINOMEscan
Put plainly: KINOMEscan. Format: binding. As to conditions: read-out: %Ctrl @ 10000nM.

Test [10] addresses T9, EPHB2 (Homo sapiens, UniProt P29323).
T9 construct: purchased DiscoverX KINOMEscan
In words: KINOMEscan. Format: binding. Conditions: read-out: %Ctrl @ 10000nM.

Test [11] concerns the target T10, PAK3 (Homo sapiens, UniProt O75914).
T10 construct: purchased DiscoverX KINOMEscan
In words: KINOMEscan. The format is binding. As to conditions: read-out: %Ctrl @ 10000nM.

T3 sequence (Q00537 whole entry): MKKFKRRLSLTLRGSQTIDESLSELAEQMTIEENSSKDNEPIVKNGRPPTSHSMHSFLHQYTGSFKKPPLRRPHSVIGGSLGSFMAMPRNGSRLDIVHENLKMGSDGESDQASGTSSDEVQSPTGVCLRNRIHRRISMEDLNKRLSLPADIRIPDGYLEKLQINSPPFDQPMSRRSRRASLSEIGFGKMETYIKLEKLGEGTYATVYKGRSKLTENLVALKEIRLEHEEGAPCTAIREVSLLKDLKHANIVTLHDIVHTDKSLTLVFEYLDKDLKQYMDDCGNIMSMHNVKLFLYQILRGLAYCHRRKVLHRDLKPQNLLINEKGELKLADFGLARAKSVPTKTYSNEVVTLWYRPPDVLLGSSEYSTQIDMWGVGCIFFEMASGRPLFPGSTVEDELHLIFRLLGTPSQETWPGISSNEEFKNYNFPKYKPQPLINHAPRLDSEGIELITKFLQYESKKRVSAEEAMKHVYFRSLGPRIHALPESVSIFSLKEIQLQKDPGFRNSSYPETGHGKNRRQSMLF
T8 sequence (P53778 whole entry): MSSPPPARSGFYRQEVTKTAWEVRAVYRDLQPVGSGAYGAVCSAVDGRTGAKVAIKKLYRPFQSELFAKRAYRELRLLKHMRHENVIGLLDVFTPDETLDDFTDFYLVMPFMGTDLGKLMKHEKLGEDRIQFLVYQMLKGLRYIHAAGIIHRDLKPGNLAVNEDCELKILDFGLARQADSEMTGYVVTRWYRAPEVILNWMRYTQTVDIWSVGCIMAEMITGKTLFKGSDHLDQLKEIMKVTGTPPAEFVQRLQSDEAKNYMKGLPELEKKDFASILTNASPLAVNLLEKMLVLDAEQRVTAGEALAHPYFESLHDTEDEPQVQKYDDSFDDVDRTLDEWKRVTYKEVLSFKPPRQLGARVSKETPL
T4 sequence (Q9BYP7 whole entry, the tested form may be a part): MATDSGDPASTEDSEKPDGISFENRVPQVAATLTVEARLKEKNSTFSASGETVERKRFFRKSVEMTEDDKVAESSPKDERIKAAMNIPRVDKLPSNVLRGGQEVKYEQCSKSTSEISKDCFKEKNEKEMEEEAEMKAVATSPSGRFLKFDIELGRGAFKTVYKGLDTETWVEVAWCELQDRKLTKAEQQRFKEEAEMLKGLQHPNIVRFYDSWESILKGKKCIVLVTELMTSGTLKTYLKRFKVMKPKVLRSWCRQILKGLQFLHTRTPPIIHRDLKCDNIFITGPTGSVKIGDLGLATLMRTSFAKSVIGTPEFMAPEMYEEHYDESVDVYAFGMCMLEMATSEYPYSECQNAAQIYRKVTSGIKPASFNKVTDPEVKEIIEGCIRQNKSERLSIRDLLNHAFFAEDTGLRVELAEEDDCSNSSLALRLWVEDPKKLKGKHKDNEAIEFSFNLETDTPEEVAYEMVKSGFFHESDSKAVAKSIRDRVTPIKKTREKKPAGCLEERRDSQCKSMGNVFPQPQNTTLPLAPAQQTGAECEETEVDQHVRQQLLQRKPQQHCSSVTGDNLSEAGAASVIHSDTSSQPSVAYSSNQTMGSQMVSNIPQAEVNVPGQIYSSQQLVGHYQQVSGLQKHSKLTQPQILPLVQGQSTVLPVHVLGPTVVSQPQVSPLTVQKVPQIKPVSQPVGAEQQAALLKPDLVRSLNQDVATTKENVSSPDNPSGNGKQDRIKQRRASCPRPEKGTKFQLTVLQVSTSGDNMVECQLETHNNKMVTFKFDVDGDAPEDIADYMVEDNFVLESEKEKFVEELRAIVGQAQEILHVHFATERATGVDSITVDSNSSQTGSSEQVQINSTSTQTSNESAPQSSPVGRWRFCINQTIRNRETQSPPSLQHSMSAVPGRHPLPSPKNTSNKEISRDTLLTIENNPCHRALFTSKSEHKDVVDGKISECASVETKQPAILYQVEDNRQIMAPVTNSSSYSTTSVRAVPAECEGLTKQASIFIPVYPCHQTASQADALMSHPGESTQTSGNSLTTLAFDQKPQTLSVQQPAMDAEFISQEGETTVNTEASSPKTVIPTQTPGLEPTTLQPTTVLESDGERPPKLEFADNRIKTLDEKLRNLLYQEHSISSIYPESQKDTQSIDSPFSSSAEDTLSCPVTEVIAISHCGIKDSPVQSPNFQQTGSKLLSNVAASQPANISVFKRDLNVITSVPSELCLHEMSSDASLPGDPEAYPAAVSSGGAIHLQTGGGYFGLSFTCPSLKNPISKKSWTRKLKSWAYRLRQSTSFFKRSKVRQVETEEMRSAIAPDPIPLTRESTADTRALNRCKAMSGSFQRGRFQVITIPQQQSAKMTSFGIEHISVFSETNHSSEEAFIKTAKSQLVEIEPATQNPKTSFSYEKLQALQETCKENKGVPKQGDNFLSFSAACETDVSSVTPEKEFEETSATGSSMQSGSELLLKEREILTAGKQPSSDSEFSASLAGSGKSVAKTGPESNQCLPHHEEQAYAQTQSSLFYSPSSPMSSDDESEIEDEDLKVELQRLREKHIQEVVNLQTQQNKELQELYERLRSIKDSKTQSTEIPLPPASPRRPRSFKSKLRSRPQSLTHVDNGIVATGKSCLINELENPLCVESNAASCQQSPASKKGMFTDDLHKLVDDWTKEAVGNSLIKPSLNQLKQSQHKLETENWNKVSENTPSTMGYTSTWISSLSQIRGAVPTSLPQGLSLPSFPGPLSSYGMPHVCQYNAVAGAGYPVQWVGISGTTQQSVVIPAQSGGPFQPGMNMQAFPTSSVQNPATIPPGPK
T1 sequence (Q9BZL6 whole entry): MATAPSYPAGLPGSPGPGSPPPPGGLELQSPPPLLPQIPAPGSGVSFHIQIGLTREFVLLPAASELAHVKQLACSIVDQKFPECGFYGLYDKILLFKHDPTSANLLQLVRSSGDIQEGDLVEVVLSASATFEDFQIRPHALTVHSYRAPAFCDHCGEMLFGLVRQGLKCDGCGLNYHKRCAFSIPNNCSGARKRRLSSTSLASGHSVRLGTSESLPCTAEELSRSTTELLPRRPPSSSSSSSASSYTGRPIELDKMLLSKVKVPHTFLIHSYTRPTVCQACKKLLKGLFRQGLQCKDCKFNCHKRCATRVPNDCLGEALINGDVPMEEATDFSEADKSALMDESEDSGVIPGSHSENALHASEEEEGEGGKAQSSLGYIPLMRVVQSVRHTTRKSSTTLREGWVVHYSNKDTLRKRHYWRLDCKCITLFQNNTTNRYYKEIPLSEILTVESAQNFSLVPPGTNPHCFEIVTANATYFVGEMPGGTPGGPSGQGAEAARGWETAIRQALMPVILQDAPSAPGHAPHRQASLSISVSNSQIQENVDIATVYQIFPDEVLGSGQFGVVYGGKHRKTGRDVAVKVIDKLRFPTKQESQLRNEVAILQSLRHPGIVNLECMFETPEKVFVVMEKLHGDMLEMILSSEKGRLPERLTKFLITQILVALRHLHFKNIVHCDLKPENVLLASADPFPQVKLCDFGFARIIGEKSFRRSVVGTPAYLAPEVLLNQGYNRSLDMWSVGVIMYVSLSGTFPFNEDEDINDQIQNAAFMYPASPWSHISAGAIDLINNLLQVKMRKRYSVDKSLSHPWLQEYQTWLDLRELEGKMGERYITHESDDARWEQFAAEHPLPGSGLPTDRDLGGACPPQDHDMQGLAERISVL
T5 sequence (O15075 whole entry): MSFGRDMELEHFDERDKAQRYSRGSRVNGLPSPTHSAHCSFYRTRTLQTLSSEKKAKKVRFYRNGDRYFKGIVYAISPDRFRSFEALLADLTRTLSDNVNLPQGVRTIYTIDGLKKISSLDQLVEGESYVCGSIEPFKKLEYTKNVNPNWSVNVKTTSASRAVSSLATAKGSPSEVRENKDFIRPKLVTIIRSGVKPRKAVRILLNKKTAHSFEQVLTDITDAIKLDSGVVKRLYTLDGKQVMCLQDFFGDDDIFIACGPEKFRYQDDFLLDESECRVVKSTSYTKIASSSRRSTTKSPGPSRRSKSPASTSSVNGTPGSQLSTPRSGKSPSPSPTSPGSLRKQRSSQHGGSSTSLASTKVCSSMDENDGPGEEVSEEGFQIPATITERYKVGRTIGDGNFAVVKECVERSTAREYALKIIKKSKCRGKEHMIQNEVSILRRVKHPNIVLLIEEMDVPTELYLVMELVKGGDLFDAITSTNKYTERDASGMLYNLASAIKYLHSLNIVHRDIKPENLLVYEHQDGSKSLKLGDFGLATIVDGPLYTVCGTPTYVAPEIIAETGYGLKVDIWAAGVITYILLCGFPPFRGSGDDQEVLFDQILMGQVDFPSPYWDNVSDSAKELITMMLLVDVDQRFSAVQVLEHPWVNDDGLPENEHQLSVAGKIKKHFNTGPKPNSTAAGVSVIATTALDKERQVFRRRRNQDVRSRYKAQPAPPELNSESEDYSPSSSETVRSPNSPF

For `CC(C)c1ccc(CC(=O)N2CCN(c3ccc(C#N)nn3)CC2)cc1` [PZ-2891, 6-(4-(2-(4-isopropylphenyl)acetyl)piperazin-1-yl)pyridazine-3-carbonitrile], the remaining binding at 10 µM in test [1] was 82%; in test [3] it was 78%; in [4] it was 95%; in test [5], 100%; in test [6] it was 80%; in test [7], 94%. Also, the remaining binding at 10 µM was 58% in test [9], 82% in [10] and 88% in test [11]. For the same molecule, the “intracellular CoA ([3H]pantothenate labeling)” value in test [2] (10 μM, C3A cells) was “increased the amount of intracellular CoA”. The “intracellular pantothenate ([3H]pantothenate labeling)” value in test [2] (10 μM, C3A cells) is given as “lowered intracellular pantothenate”. Besides, the “acetyl-CoA levels in C3A cells” value in test [2] (10 μM, mass spectrometry) is “higher acetyl-CoA levels”. Moreover, the “total intracellular CoA levels in C3A cells” value in test [2] (increasing concentrations (20 and 50 μM less activating)) is given as “CoA progressively increased up to 10 μM”. In test [8], the Kd (usually the free concentration of one partner at which half of the binding sites on the other are occupied at equilibrium, for simple one-to-one binding) is above 30 µM.
